Values joined by “and” are separate entries in the source; they are usually repeats but may differ in a detail not shown here. Equal values may be shown once. Read-outs that look alike come from different tables or passages of the source.
How the values were obtained:
[1] = assay type: in vivo; conditions: mouse; for Tmax / MRT inf: male, C57BL/6N, ip
[2] = assay type: in vivo; conditions: mouse; for concentration at 1 week: male, C57BL/6N, oral; for Concentration in brain: 1 week
[3] = Stability of 3-MoSA in mouse brain homogenate to freezing; assay type: physicochemical; conditions: storage 7 months at −80°C
cells = conditions: all cells tested; cited from earlier work
[4] = single i.p. 200 mg/kg, plasma, 200 mg/kg

**Q.** Which results are given for `COc1cccc(CN)c1O` [3-MoSA, 3-methoxy-2-hydroxybenzylamine]?
**A.** Tmax ([1]; brain, 200 mg/kg): 15 min; MRT inf ([1]; heart, 200 mg/kg): 54 min; Tmax ([1]; heart, 200 mg/kg): 15 min; MRT inf ([1]; kidney, 200 mg/kg): 54 min; Tmax ([1]; kidney, 200 mg/kg): 30 min; MRT inf ([1]; liver, 200 mg/kg): 60 min; Tmax ([1]; liver, 200 mg/kg): 15 min; Tmax ([1]; plasma, 200 mg/kg): 30 min; MRT inf ([1]; spleen, 200 mg/kg): 60 min; Tmax ([1]; spleen, 200 mg/kg): 15 min; Time to distribution to heart, spleen, liver and kidneys after administration ([1]; single i.p. 200 mg/kg): 15 to 30 min; Time of maximum brain concentration (CBmax) ([1]; single i.p. 200 mg/kg, brain): 15 min; Cmax, brain ([1]; single i.p. 200 mg/kg, brain, 200 mg/kg): 1395 ± 207 µg/g and 1395.3 ± 207.0 µg/g; AUC (0-t), heart ([1]; single i.p. 200 mg/kg, heart): 546.7 ± 52.4 µg·h/g; AUC (0-t), kidney ([1]; single i.p. 200 mg/kg, kidney): 1981.6 ± 174.0 µg·h/g; Cmax, kidney ([1]; single i.p. 200 mg/kg, kidney): 1703.1 ± 146.1 µg/g; AUC (0-t), liver ([1]; single i.p. 200 mg/kg, liver): 540.4 ± 37.1 µg·h/g; Cmax, liver ([1]; single i.p. 200 mg/kg, liver): 880.4 ± 122.3 µg/g; Drug accumulation over time in organs ([1]; single i.p. 200 mg/kg, organs studied): no evidence of specific drug accumulation over time; AUC (0-t), plasma [1, 4]: 361.5 ± 41.6 µg·h/mL; CL/F (total body clearance) [1, 4]: 544.1 L/h/kg; Cmax, plasma [1, 4]: 342600 ± 56400 ng/mL; Elimination t1/2, plasma [1, 4]: 36 min; V/F (apparent volume of distribution, Vd/F) [1, 4]: 486.4 L/kg; AUC (0-t), spleen ([1]; single i.p. 200 mg/kg, spleen): 734.5 ± 60.7 µg·h/g; Time after injection up to which 3-MoSA was detectable in tissue ([1]; single i.p. 200 mg/kg, tissue): up to 4 h; concentration at 1 week ([2]; brain, 3 g/l, Concentration in brain, drink at 3 g/l): 18000 ng/g; concentration at 1 week ([2]; brain, 5 g/l, Concentration in brain, drink at 5 g/l): 25000 ng/g; concentration at 1 week ([2]; brain, 7 g/l, Concentration in brain, drink at 7 g/l): 38000 ng/g; concentration at 1 week ([2]; brain, 10 g/l, Concentration in brain, drink at 10 g/l): 82000 ng/g; concentration at 1 week ([2]; heart, 3 g/l, Concentration in heart, drink at 3 g/l): 23900 ± 6500 ng/g; concentration at 1 week ([2]; heart, 5 g/l, Concentration in heart, drink at 5 g/l): 46300 ± 6000 ng/g; concentration at 1 week ([2]; heart, 7 g/l, Concentration in heart, drink at 7 g/l): 53500 ± 8100 ng/g; concentration at 1 week ([2]; heart, 10 g/l, Concentration in heart, drink at 10 g/l): 60200 ± 8700 ng/g; concentration at 1 week ([2]; kidney, 3 g/l, Concentration in kidney, drink at 3 g/l): 91100 ± 16300 ng/g; concentration at 1 week ([2]; kidney, 5 g/l, Concentration in kidney, drink at 5 g/l): 155000 ± 20300 ng/g; concentration at 1 week ([2]; kidney, 7 g/l, Concentration in kidney, drink at 7 g/l): 210000 ± 13100 ng/g; concentration at 1 week ([2]; kidney, 10 g/l, Concentration in kidney, drink at 10 g/l): 212000 ± 17400 ng/g; concentration at 1 week ([2]; liver, 3 g/l, Concentration in liver, drink at 3 g/l): 74100 ± 11700 ng/g; concentration at 1 week ([2]; liver, 5 g/l, Concentration in liver, drink at 5 g/l): 204000 ± 22000 ng/g; concentration at 1 week ([2]; liver, 7 g/l, Concentration in liver, drink at 7 g/l): 252000 ± 24300 ng/g; concentration at 1 week ([2]; liver, 10 g/l, Concentration in liver, drink at 10 g/l): 259000 ± 26200 ng/g; concentration at 1 week ([2]; plasma, 3 g/l, Concentration in plasma, drink at 3 g/l): 4000 ± 1000 ng/mL; concentration at 1 week ([2]; plasma, 5 g/l, Concentration in plasma, drink at 5 g/l): 5400 ± 1100 ng/mL; concentration at 1 week ([2]; plasma, 7 g/l, Concentration in plasma, drink at 7 g/l): 10800 ± 1600 ng/mL; concentration at 1 week ([2]; plasma, 10 g/l, Concentration in plasma, drink at 10 g/l): 11500 ± 1200 ng/mL; concentration at 1 week ([2]; spleen, 3 g/l, Concentration in spleen, drink at 3 g/l): 46600 ± 7900 ng/g; concentration at 1 week ([2]; spleen, 5 g/l, Concentration in spleen, drink at 5 g/l): 82200 ± 7200 ng/g; concentration at 1 week ([2]; spleen, 7 g/l, Concentration in spleen, drink at 7 g/l): 185000 ± 11600 ng/g; concentration at 1 week ([2]; spleen, 10 g/l, Concentration in spleen, drink at 10 g/l): 192000 ± 23600 ng/g; Concentration in brain ([2]; drink at 3 g/l): 18.1 ± 4.4 µg of 3-MoSA/g of tissue; Concentration in brain ([2]; drink at 5 g/l): 24.7 ± 3.1 µg of 3-MoSA/g of tissue; Concentration in brain ([2]; drink at 7 g/l): 37.6 ± 0.8 µg of 3-MoSA/g of tissue; Concentration in brain ([2]; drink at 10 g/l): 82.3 ± 24.5 µg of 3-MoSA/g of tissue; Stability: fraction recovered after storage [3]: 77% and 76.87%; Cytotoxicity (cells): not cytotoxic
